# Measured values as given in patent publication US10624917B2, “Compositions and methods useful for treating or preventing liver diseases or disorders, and promoting weight loss” (YALE UNIVERSITY, priority 2014, dated 2020).
# Legend:
# [1] = test system: Il1b and other genes in PECs; experiment: Quantitative real-time RT-PCR gene expression in PECs; format: cell-based, mouse; details: peritoneal macrophages, FIG. 2E
# [2] = test system: HRE promoter luciferase construct in THP-1 cells; experiment: HRE-promoter luciferase reporter assay in THP-1 cells; format: cell-based, human; details: LPS/PMA primed 16 hours, treatment over 8 hours
# Description: FIGS. 4A-4H illustrate the finding that adenosine mediates increase in pro-IL-1β via a HIF-1α-dependent pathway. FIG. 4A: Consensus NFκB and HRE binding sites in the IL-1β promoter. FIG. 4B: LPS primed PECs obtained from A2AR-cKO and controls were stimulated with or without NECA or CGS21680. FIG. 4C: LPS primed PECs obtained from HIF-1α-cKO and controls were stimulated with or without NECA at time points as indicated. Cells were harvested and RNA isolated after each treatment and gene expression of Il1b and Hif1α quantified by real-time PCR. FIG. 4D: THP-1 cells were transfected with HRE-promoter luciferase construct and β-galactosidase plasmid in the presence or absence of CREB dominant negative plasmid (CREBΔ), and then primed with LPS/PMA followed by NECA. […] Luciferase activities were measured and normalized to β-galactosidase activity and normalized with controls. […] Luciferase activities were measured and normalized to Rluc activity and the normalized value with controls as indicated. […] IL-1β was measured in cell supernatant by ELISA. Data are expressed as the mean±SD from three independent experiments. […] HIF-1α, pro-caspase-1, Caspase-1 and pro-IL-1β was measured in cell supernatant by western blot Immunoblots shown are representative results from at least three independent experiments. […]
# [3] = test system: IL-1β production in murine peritoneal macrophages (PECs); experiment: IL-1β secretion (ELISA) by primed, ATP-pulsed peritoneal macrophages (PECs); format: cell-based, mouse; details: LPS and monosodium urate (MSU) crystals
# [4] = test system: wild type C57BL/6 mice treated with LPS; experiment: LPS/D-galactosamine liver injury with adenosine agonist; format: in vivo, mouse
# Experimental: FIGS. 14A-14F illustrate increase in serum ALT and changes in liver gene expression in mice treated with LPS in the presence or absence of adenosine agonist. Wild type C57BL/6 mice were injected intraperitoneally with LPS (1 μg/mouse). 16 hours later mice received NECA (2.5 mg kg^−1 body weight) and D-galactosamine (500 mg kg^−1) by IP for 2 hours following liver tissue and serum collection. Serum ALT was determined (FIG. 14A), and the gene expression of Il1β (FIG. 14B), Il6 (FIG. 14C), Hif1α (FIG. 14D), Nlrp3 (FIG. 14E), and tnfα (FIG. 14F) was quantified by real-time PCR using each specific gene primer set as listed. Data are expressed as the mean±SD from 6 mice in each treatment group. *p<0.05 determined by Student's t-test.
# The results recited herein show a requirement for adenosine signaling via the A2A receptor for maximal production of IL-1β by macrophages in vitro. With tissue inflammation and injury extracellular adenosine levels are known to increase by a variety of means from the basal levels below 1 μM to levels up to […]. It was tested whether A2A receptor driven inflammasome activity was relevant in vivo; two models of liver injury was used: one acute LPS driven model where liver injury was assessed in 6 hours after LPS, and a second model of sterile injury by a toxic metabolic insult to the liver by thioacetamide (TAA) in which injury was examined at days 1, 2 and 7. A2AR-cKO mice that specifically delete Adora2a gene in macrophages were used. Liver immune populations were intact in these mice (FIG. 13). […] To test the effect of increasing adenosine signaling in vivo, wild-type mice were treated with LPS in the presence or absence of the adenosine agonist NECA.
Structure (SMILES),induction of Il1b mRNA expression [1],HRE reporter luciferase activity [2],IL-1β production [3],serum ALT [4],whole liver transcript of Hif1a [4],whole liver transcript of Il1b [4],whole liver transcript of Il6 [4],whole liver transcript of Nlrp3 [4],whole liver transcript of tnfa [4]
CCNC(=O)[C@H]1O[C@@H](n2cnc3c(N)nc(NCCc4ccc(CCC(=O)O)cc4)nc32)[C@H](O)[C@@H]1O [CGS21680],increases,–,–,–,–,–,–,–,–
"CCNC(=O)[C@H]1O[C@@H](n2cnc3c(N)ncnc32)[C@H](O)[C@@H]1O [NECA, 5′-(N-ethylcarboxamido) adenosine]",–,resulted in HRE reporter luciferase activity,increased,significant elevation,significant elevation,significant elevation,significant elevation,significant elevation,reduction
